From patent publication US11634425B2, “Pharmaceutical compounds” (priority 2019, dated 2023)

Legend:
RSV A2 = test: RSV plaque reduction assay; assay type: cell-based, respiratory syncytial virus (RSV); details: human respiratory syncytial virus, HepG2, Hep-G2 cells, mean of at least two experiments
Method: (§1) Compounds were subjected to RSV plaque reduction assays according to the following protocol. Plaque EC50 and cell toxicity CC50 values are a mean of at least two experiments and figures are rounded to whole units.
Hep-G2 cells (ECACC, 85011430) were passaged in flasks and seeded in 24-well plates in DMEM containing antibiotics and supplemented with 10% FBS. During inoculation and subsequent incubation, cells were cultured in DMEM containing 2% FBS. 100 plaque forming unit/well of RSV (RSV A2 ECACC, 0709161v) was mixed with eight serial dilutions of compound. Subsequently, 100 μL of the virus/compound mixtures was added to confluent Hep-G2 cell monolayers. The cells and virus/compound mixtures were incubated at 37° C. in a humidified 5% CO2 incubator for 2 h prior to removal of the inoculum and addition of 1 mL of overlay (DMEM containing 2% FBS and 0.8% CMC) containing compound dilutions. The cells and were incubated at 37° C. in a humidified 5% CO2 incubator for 2 days.
Cells were washed with PBS before adding 75/25% […] EtOH/MeOH, for 3 min. Fixative was removed and plates were washed with PBS. A pre-titrated amount of the primary antibody was added in 200 μL PBS/2% milk powder, and plates incubated for 90 min at 37° C. The plates were washed 3 times with PBS/0.05% Tween20 before addition of rabbit anti-goat horse radish peroxidase in 200 μL PBS/2% milk powder, and incubated for 1 h at 37° C. Following three wash steps with PBS/0.05% Tween20, 200 μL ready-to-use TrueBlue was added and plates were incubated at rt for 10-15 min before washing with water. After removal of water, plates were air-dried in the dark.
(§2) Plates were scanned and analysed using the Immunospot S6 Macro analyser, which is equipped with BioSpot analysis software for counting immunostained plaques (virospots). Plaque counts were used to calculate % c infection relative to the mean of the plaque count in the virus control wells for RSV. The EC50 value was calculated as 50% reduction in signal, respectively, by interpolation of inhibition curves fitted with a 4-parameter nonlinear regression with a variable slope in Dotmatics. Plaque EC50 and cell toxicity CC50 values are a mean of at least two experiments and figures are rounded to whole units.

Cell cytotoxicity (CC50) = assay type: cell-based; details: human; mean of at least two experiments
Source text: as §1, §2

Compound O=C(N[C@H]1N=C(c2ccccc2)c2ccccc2NC1=O)c1c(-c2ccccc2F)nn2ccc(N3CCCC3)nc12 [Example 41, 2-(2-Fluorophenyl)-N-[(3S)-2-oxo-5-phenyl-1,3-dihydro-1,4-benzodiazepin-3-yl]-5-pyrrolidin-1-ylpyrazolo[1,5-a]pyrimidine-3-carboxamide] has an EC50 (RSV A2) of 0.08 µM and a CC50 (Cell cytotoxicity (CC50)) of over 25 µM.

COc1ccc(F)c(-c2nn3cccnc3c2C(=O)N[C@H]2N=C(c3ccccc3)c3cccc(F)c3NC2=O)c1 [Example 8, 2-(2-Fluoro-5-methoxyphenyl)-N-[(3S)-9-fluoro-2-oxo-5-phenyl-1,3-dihydro-1,4-benzodiazepin-3-yl]pyrazolo[1,5-a]pyrimidine-3-carboxamide] gave an EC50 (RSV A2) of 0.054 µM and a CC50 (Cell cytotoxicity (CC50)) of over 25 µM.

With CCNc1ccc(-c2nn3cccnc3c2C(=O)N[C@H]2N=C(c3ccccc3)c3cccc(F)c3NC2=O)c(F)n1 [Example 66, 2-[6-(Ethylamino)-2-fluoropyridin-3-yl]-N-[(3S)-9-fluoro-2-oxo-5-phenyl-1,3-dihydro-1,4-benzodiazepin-3-yl]pyrazolo[1,5-a]pyrimidine-3-carboxamide] the EC50 (RSV A2) was 0.013 µM and the CC50 (Cell cytotoxicity (CC50)) was over 25 µM.

Cc1ccc2nc(-c3cncc(C(F)(F)F)c3)c(C(=O)N[C@H]3N=C(c4ccccc4)c4ccccc4NC3=O)n2n1 [Example 46, 6-Methyl-N-[(3S)-2-oxo-5-phenyl-1,3-dihydro-1,4-benzodiazepin-3-yl]-2-[5-(trifluoromethyl)pyridin-3-yl]imidazo[1,2-b]pyridazine-3-carboxamide] gave an EC50 (RSV A2) of 0.094 µM and a CC50 (Cell cytotoxicity (CC50)) of over 25 µM.

Cc1cc(-c2nc3ccc(C)nn3c2C(=O)N[C@H]2N=C(c3ccccc3)c3cccc(F)c3NC2=O)ccn1 [Example 98, N-[(3S)-9-fluoro-2-oxo-5-phenyl-1,3-dihydro-1,4-benzodiazepin-3-yl]-6-methyl-2-(2-methylpyridin-4-yl)imidazo[1,2-b]pyridazine-3-carboxamide] gave an EC50 (RSV A2) of 0.048 µM and a CC50 (Cell cytotoxicity (CC50)) of over 25 µM.

With Cc1ccc(-c2nn3cccnc3c2C(=O)N[C@H]2N=C(c3ccccc3)c3ccccc3NC2=O)cn1 [Example 49, 2-(6-Methylpyridin-3-yl)-N-[(3S)-2-oxo-5-phenyl-1,3-dihydro-1,4-benzodiazepin-3-yl]pyrazolo[1,5-a]pyrimidine-3-carboxamide] the EC50 (RSV A2) was 0.1 µM and the CC50 (Cell cytotoxicity (CC50)) was over 25 µM.

In the case of Cc1ccc2nc(-c3ccccc3)c(C(=O)N[C@H]3N=C(c4ccccc4)c4ccccc4NC3=O)n2n1 [Example 92, 6-Methyl-N-[(3S)-2-oxo-5-phenyl-1,3-dihydro-1,4-benzodiazepin-3-yl]-2-phenylimidazo[1,2-b]pyridazine-3-carboxamide], the EC50 (RSV A2) is reported as 0.048 µM and the CC50 (Cell cytotoxicity (CC50)) is reported as over 25 µM.

For Cc1ccc2nc(-c3ccncc3F)c(C(=O)N[C@H]3N=C(c4ccccc4)c4ccccc4NC3=O)n2n1 [Example 99, 2-(3-Fluoropyridin-4-yl)-6-methyl-N-[(3S)-2-oxo-5-phenyl-1,3-dihydro-1,4-benzodiazepin-3-yl]imidazo[1,2-b]pyridazine-3-carboxamide], the EC50 (RSV A2) was 0.051 µM and the CC50 (Cell cytotoxicity (CC50)) was over 25 µM.

Work on Cc1ccc2nc(-c3ccc(F)cc3F)c(C(=O)N[C@H]3N=C(c4ccccc4)c4ccccc4NC3=O)n2n1 [Example 90, 2-(2,4-Difluorophenyl)-6-methyl-N-[(3S)-2-oxo-5-phenyl-1,3-dihydro-1,4-benzodiazepin-3-yl]imidazo[1,2-b]pyridazine-3-carboxamide] yielded an EC50 (RSV A2) of 0.008 µM and a CC50 (Cell cytotoxicity (CC50)) of over 25 µM.

For CC1COCCN1c1ccc(-c2nn3cccnc3c2C(=O)N[C@H]2N=C(c3ccccc3)c3cccc(F)c3NC2=O)cn1 (stereo partly drawn) [Example 68, 2-[6-(3-Methylmorpholin-4-yl)pyridin-3-yl]-N-[(3S)-9-fluoro-2-oxo-5-phenyl-1,3-dihydro-1,4-benzodiazepin-3-yl]pyrazolo[1,5-a]pyrimidine-3-carboxamide], the EC50 (RSV A2) was 0.115 µM and the CC50 (Cell cytotoxicity (CC50)) was over 25 µM.

Compound Cc1cnc2c(C(=O)N[C@H]3N=C(c4ccccc4)c4ccccc4NC3=O)c(-c3ccccc3F)nn2c1 [Example 33, 2-(2-Fluorophenyl)-6-methyl-N-[(3S)-2-oxo-5-phenyl-1,3-dihydro-1,4-benzodiazepin-3-yl]pyrazolo[1,5-a]pyrimidine-3-carboxamide] has an EC50 (RSV A2) of 0.029 µM and a CC50 (Cell cytotoxicity (CC50)) of over 25 µM.

Cc1ccc2nc(-c3ccc(N4CCOCC4)nc3)c(C(=O)N[C@H]3N=C(c4ccccc4)c4ccccc4NC3=O)n2n1 [Example 104, 6-Methyl-2-(6-morpholin-4-ylpyridin-3-yl)-N-[(3S)-2-oxo-5-phenyl-1,3-dihydro-1,4-benzodiazepin-3-yl]imidazo[1,2-b]pyridazine-3-carboxamide] showed an EC50 (RSV A2) of 0.029 µM and a CC50 (Cell cytotoxicity (CC50)) of over 25 µM.

Work on Cc1cc(-c2nn3cccnc3c2C(=O)N[C@H]2N=C(c3ccccc3)c3cccc(F)c3NC2=O)ccn1 [Example 52, N-[(3S)-9-fluoro-2-oxo-5-phenyl-1,3-dihydro-1,4-benzodiazepin-3-yl]-2-(2-methylpyridin-4-yl)pyrazolo[1,5-a]pyrimidine-3-carboxamide] yielded an EC50 (RSV A2) of 0.103 µM and a CC50 (Cell cytotoxicity (CC50)) of over 25 µM.

Work on Cc1ccc2nc(-c3cncc(C(F)(F)F)c3)c(C(=O)N[C@H]3N=C(c4ccccc4)c4cccc(F)c4NC3=O)n2n1 [Example 47, N-[(3S)-9-fluoro-2-oxo-5-phenyl-1,3-dihydro-1,4-benzodiazepin-3-yl]-6-methyl-2-[5-(trifluoromethyl)pyridin-3-yl]imidazo[1,2-b]pyridazine-3-carboxamide] yielded an EC50 (RSV A2) of 0.101 µM and a CC50 (Cell cytotoxicity (CC50)) of over 25 µM.

In the case of CC(C)c1ccc(-c2nn3cccnc3c2C(=O)N[C@H]2N=C(c3ccccc3)c3ccccc3NC2=O)cn1 [Example 58, 2-(6-Propan-2-ylpyridin-3-yl)-N-[(3S)-2-oxo-5-phenyl-1,3-dihydro-1,4-benzodiazepin-3-yl]pyrazolo[1,5-a]pyrimidine-3-carboxamide], the EC50 (RSV A2) is reported as 0.069 µM and the CC50 (Cell cytotoxicity (CC50)) is reported as over 25 µM.

In the case of CC1COCCN1c1ccc(-c2nn3cccnc3c2C(=O)N[C@H]2N=C(c3ccccc3)c3ccccc3NC2=O)cn1 (stereo partly drawn) [Example 67, 2-[6-(3-Methylmorpholin-4-yl)pyridin-3-yl]-N-[(3S)-2-oxo-5-phenyl-1,3-dihydro-1,4-benzodiazepin-3-yl]pyrazolo[1,5-a]pyrimidine-3-carboxamide], the EC50 (RSV A2) is reported as 0.141 µM and the CC50 (Cell cytotoxicity (CC50)) is reported as over 25 µM.

Compound CC(C)Nc1ccc(-c2nn3cccnc3c2C(=O)N[C@H]2N=C(c3ccccc3)c3ccccc3NC2=O)cc1 [Example 13, N-[(3S)-2-Oxo-5-phenyl-1,3-dihydro-1,4-benzodiazepin-3-yl]-2-[4-(propan-2-ylamino)phenyl]pyrazolo[1,5-a]pyrimidine-3-carboxamide] has an EC50 (RSV A2) of 0.094 µM and a CC50 (Cell cytotoxicity (CC50)) of over 25 µM.

Cc1ccc2nc(-c3cncc(F)c3)c(C(=O)N[C@H]3N=C(c4ccccc4)c4ccccc4NC3=O)n2n1 [Example 101, 2-(5-Fluoropyridin-3-yl)-6-methyl-N-[(3S)-2-oxo-5-phenyl-1,3-dihydro-1,4-benzodiazepin-3-yl]imidazo[1,2-b]pyridazine-3-carboxamide] showed an EC50 (RSV A2) of 0.081 µM and a CC50 (Cell cytotoxicity (CC50)) of over 25 µM.

With COCCOc1ccc2nc(-c3ccccc3F)c(C(=O)N[C@H]3N=C(c4ccccc4)c4cccc(F)c4NC3=O)n2n1 [Example 110, N-[(3S)-9-Fluoro-2-oxo-5-phenyl-1,3-dihydro-1,4-benzodiazepin-3-yl]-2-(2-fluorophenyl)-6-(2-methoxyethoxy)imidazo[1,2-b]pyridazine-3-carboxamide] the EC50 (RSV A2) was 0.073 µM and the CC50 (Cell cytotoxicity (CC50)) was over 25 µM.

For C[C@H]1COCCN1c1ccc(-c2nn3cccnc3c2C(=O)N[C@H]2N=C(c3ccccc3)c3ccccc3NC2=O)cn1 (single isomer, unassigned) [Example 124, 2-(6-[(3S*)-3-methylmorpholin-4-yl]pyridin-3-yl)-N-[(3S)-2-oxo-5-phenyl-2,3-dihydro-1H-1,4-benzodiazepin-3-yl]pyrazolo[1,5-a]pyrimidine-3-carboxamide], the EC50 (RSV A2) was 0.083 µM and the CC50 (Cell cytotoxicity (CC50)) was over 25 µM.

COc1ccc(-c2nn3cccnc3c2C(=O)N[C@H]2N=C(c3ccccc3)c3cccc(F)c3NC2=O)cn1 [Example 76, N-[(3S)-9-fluoro-2-oxo-5-phenyl-1,3-dihydro-1,4-benzodiazepin-3-yl]-2-(6-methoxypyridin-3-yl)pyrazolo[1,5-a]pyrimidine-3-carboxamide] gave an EC50 (RSV A2) of 0.093 µM and a CC50 (Cell cytotoxicity (CC50)) of over 25 µM.

In the case of Cn1ccc2cc(-c3nn4cccnc4c3C(=O)N[C@H]3N=C(c4ccccc4)c4cccc(F)c4NC3=O)cnc21 [Example 71, N-[(3S)-9-fluoro-2-oxo-5-phenyl-1,3-dihydro-1,4-benzodiazepin-3-yl]-2-(1-methylpyrrolo[2,3-b]pyridin-5-yl)pyrazolo[1,5-a]pyrimidine-3-carboxamide], the EC50 (RSV A2) is reported as 0.101 µM and the CC50 (Cell cytotoxicity (CC50)) is reported as over 25 µM.
